Test results as given in article PMC9299702, “Maytansinol Derivatives: Side Reactions as a Chance for New Tubulin Binders” (Chemistry (Weinheim an Der Bergstrasse, Germany), 2021).
Where two headings read alike, the source gives them in different places.

What was measured:
A2780 cells = assay: Cytotoxicity (antiproliferation assay) in A2780; assay type: cell-based, human
A549 cells [1] = assay: Cytotoxicity (antiproliferation assay) in A549; assay type: cell-based, human
[2] = target: T1, maytansine site of tubulin (Bos taurus, UniProt Q6B856); assay: biochemical; assay type: binding, calf
T1 construct: Purified calf brain tubulin and chemicals were obtained as previously described; from tissue; host or cells: calf brain

tubulin [3] = target: T2, tubulin (Bos taurus, UniProt Q6B856); assay: Inhibition of tubulin assembly (turbidity time courses); assay type: biochemical, calf; details: 25 μM tubulin in GAB, 27.5 μM compound, stoichiometric ratio
T2 construct: Purified calf brain tubulin and chemicals were obtained as previously described; from tissue; host or cells: calf brain

A2780AD cells = assay: Cytotoxicity (antiproliferation assay) in A2780AD (pGp overexpressing); assay type: cell-based, human; details: for IC50: read-out: IC50 A2780AD; for R/S (resistance index): A2780AD versus A2780
A549 cells [4] = assay: Effects on cellular microtubules by immunofluorescence microscopy; assay type: cell-based, human; details: fluorescence microscopy; for concentration at which the microtubule destabilizing effect is observed in interphasic cells: interphase; for concentration at which the microtubule destabilizing effect is observed in mitotic cells: mitosis
Source text: To do so, we performed fluorescence microscopy using A549 cells.
The effect of these compounds on the microtubule network and mitotic spindle was characterized in A549 tumor cells by fluorescence microscopy. […] Cells were immunostained for A)–I) α‐tubulin or A’)–I’) DNA, and A’’)–I’’) the images obtained were merged (tubulin in green and DNA in magenta). A)–A’’) Interphase cell treated with DMSO; notice the regular microtubule network evenly distributed in the cytoplasm. B)–B’’) Control metaphase cell with a normally distributed bipolar mitotic spindle in which all chromosomes are positioned in the metaphase plate. […] All images are shown at the same scale; scale bar: 10 μm.
In interphase the microtubule network covers the whole cytoplasm, while in dividing cells during metaphase there are regular bipolar spindles that allow the correct positioning and segregation of chromosomes in the subsequent division steps.
Indirect immunofluorescence images were obtained using A549 cells plated at a density of 130,000 cells/ml onto 12mm

tubulin [5] = system: tubulin; parameters: method as in PMID 21043240; details: compared with maytansine; cited from earlier work
[6] = A2780 cell line, read-out: IC50 A2780
[7] = A549 cell line, read-out: IC50 A549
[8] = competition against Fc maytansine
[9] = competition against Fc maytansine, read-out: K d
[10] = A2780AD cell line, pGp overexpressing
[11] = Homo sapiens, A2780 cell line, read-out: IC50 A2780
[12] = Homo sapiens, A549 cell line, read-out: IC50 A549
[13] = Homo sapiens, A2780AD cell line, pGp overexpressing
[14] = Homo sapiens, A2780, read-out: IC50 A2780
[15] = Homo sapiens, A549, read-out: IC50 A549

T2 sequence (Q6B856 whole entry): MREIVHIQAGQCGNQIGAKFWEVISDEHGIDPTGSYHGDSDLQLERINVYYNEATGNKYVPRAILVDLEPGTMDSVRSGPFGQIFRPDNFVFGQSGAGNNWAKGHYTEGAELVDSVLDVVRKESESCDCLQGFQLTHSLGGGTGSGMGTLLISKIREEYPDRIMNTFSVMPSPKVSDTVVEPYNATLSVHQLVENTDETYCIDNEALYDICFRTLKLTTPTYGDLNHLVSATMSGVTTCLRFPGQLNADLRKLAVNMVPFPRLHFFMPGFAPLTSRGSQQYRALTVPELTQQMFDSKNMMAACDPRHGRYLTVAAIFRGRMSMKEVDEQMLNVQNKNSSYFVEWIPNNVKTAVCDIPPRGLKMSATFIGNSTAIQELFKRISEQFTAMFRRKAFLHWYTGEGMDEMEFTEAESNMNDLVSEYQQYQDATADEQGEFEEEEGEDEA
T2 sequence (P81947 whole entry partner): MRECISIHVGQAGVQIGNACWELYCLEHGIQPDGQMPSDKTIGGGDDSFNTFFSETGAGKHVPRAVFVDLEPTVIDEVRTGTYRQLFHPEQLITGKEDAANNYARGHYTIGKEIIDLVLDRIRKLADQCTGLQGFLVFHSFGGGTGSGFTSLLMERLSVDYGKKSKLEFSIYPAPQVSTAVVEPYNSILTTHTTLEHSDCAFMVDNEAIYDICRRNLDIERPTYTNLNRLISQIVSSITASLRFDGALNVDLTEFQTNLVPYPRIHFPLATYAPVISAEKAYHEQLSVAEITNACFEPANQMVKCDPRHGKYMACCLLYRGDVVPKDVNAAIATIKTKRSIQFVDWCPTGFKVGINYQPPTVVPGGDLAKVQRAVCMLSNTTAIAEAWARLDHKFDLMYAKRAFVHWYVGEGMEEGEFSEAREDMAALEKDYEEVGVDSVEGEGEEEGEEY
T1 sequence (Q6B856 whole entry): as the sequence (Q6B856 whole entry) above
T1 sequence (P81947 whole entry partner): as the sequence (P81947 whole entry partner) above

| SMILES | IC50 (A2780 cells; [6]) [nM] | IC50 (A549 cells [1]; [7]) [nM] | Mean K b [2, 8] | Kd [2, 9] [nM] | Inhibition of tubulin assembly (tubulin [3]) | IC50 (A2780AD cells; [10]) [nM] | R/S (resistance index) (A2780AD cells) | concentration at which the microtubule destabilizing effect is observed in interphasic cells (A549 cells [4]) [nM] | concentration at which the microtubule destabilizing effect is observed in mitotic cells (A549 cells [4]) [nM] | IC50 (A2780 cells; [11]) [nM] | IC50 (A549 cells [1]; [12]) [nM] | Kd [2] [nM] | inhibitory activity on tubulin polymerization (tubulin [5]) | IC50 (A2780AD cells; [13]) [nM] | IC50 (A2780 cells; [14]) [nM] | IC50 (A549 cells [1]; [15]) [nM] | IC50 (A2780AD cells; Homo sapiens, A2780AD) [nM] |
| --- | --- | --- | --- | --- | --- | --- | --- | --- | --- | --- | --- | --- | --- | --- | --- | --- | --- |
| COc1cc2cc(c1Cl)N(C)C(=O)CC(OC(C)=O)C1(C)OC1C(C)C1C=C(NC(=O)O1)C(OC)C=CC=C(C)C2 (centres unmarked) [5 b] | 130 ± 20 | 190 ± 40 | 1.17±0.04×10^6 M^−1 | 860 ± 30 | strong inhibitors that completely abolished microtubule assembly | > 6160 |  |  |  |  |  |  |  |  |  |  |  |
| COc1cc2cc(c1Cl)N(C)C(=O)CC(OC(C)=O)C1(C)OC1C(C)C1CC(O)(NC(=O)O1)C(OC)C=CC=C(C)C2 (centres unmarked) [4 b] | 0.25 ± 0.01 | 1.2 ± 0.3 | 9±1×10^7 M^−1 | 11 ± 1 |  | 20 ± 1 | 80 |  |  |  |  |  |  |  |  |  |  |
| COc1cc2cc(c1Cl)N(C)C(=O)CC(O)C1(C)OC1C(C)C1CC(O)(NC(=O)O1)C(OC)/C=C/C=C(\C)C2 (centres unmarked) [1 b, Maytansinol] |  |  | 1.30±0.06×10^6 M^−1 |  | noticeable effect at stoichiometric concentrations |  |  | 100 | 50 | 23.8 ± 1.65 | 60 ± 3 | 780 ± 40 | weaker inhibitory activity on tubulin polymerization than maytansine | 1460 ± 148 |  |  |  |
| COc1cc2cc(c1Cl)N(C)C(=O)CC(O)C1(C)OC1C(C)C1C=C(NC(=O)O1)C(OC)C=CC=C(C)C2 (centres unmarked) [Compound 3] |  |  | 1.20±0.03×10^6 M^−1 | 830 ± 20 | mild |  |  |  |  |  |  |  |  |  | 74 ± 4 | 28 ± 2 | > 19700 |
| COc1cc2cc(c1Cl)N(C)C(=O)C[C@H](OC(=O)[C@H](C)N(C)C(C)=O)[C@]1(C)O[C@H]1[C@H](C)[C@@H]1C[C@@](O)(NC(=O)O1)[C@H](OC)/C=C/C=C(\C)C2 [1 a, Maytansine, reference compound] |  |  | 9.0±1.3×10^7 M^−1 |  | completely abolishes tubulin polymerization |  |  | 5 | 5 | 0.31 ± 0.02 | 0.278 ± 0.04 | 14 ± 2 |  | 19.5 ± 1.14 |  |  |  |
| COc1cc2cc(c1Cl)N(C)C(=O)CC(OC(=O)c1ccccc1)C1(C)OC1C(C)C1C=C(C(OC)C=CC=C(C)C2)N(C(=O)c2ccccc2)C(=O)O1 (centres unmarked) [7 a] |  | 47 ± 6 | 5.0±0.5×10^5 M^−1 | 2000 ± 200 | mild | 3500 ± 320 |  |  |  |  |  |  |  |  |  |  |  |
| C#CCCCCC(=O)OC1CC(=O)N(C)c2cc(cc(OC)c2Cl)CC(C)=CC=CC(OC)C2=CC(OC(=O)N2)C(C)C2OC12C (centres unmarked) [5 c] | 225 ± 15 | 320 ± 40 | 5.6±0.4×10^5 M^−1 | 1800 ± 120 | mild | > 7960 |  |  |  |  |  |  |  |  |  |  |  |
| COc1cc2cc(c1Cl)N(C)C(=O)CC(O)C1(C)OC1C(C)C=CC(=O)C(OC)C=CC=C(C)C2 (centres unmarked) [Compound 2] |  |  | 1.42±0.08×10^6 M^−1 | 720 ± 50 | weak inhibition |  |  |  |  |  |  |  |  |  | 9.64 ± 0.97 | 15 ± 2 | 981 ± 201 |
| COc1cc2cc(c1Cl)N(C)C(=O)C[C@H](OC(=O)c1ccccc1)[C@]1(C)O[C@H]1[C@H](C)[C@@H]1C[C@@](O)(NC(=O)O1)[C@H](OC)/C=C/C=C(\C)C2 [4 a] | 0.11 ± 0.01 | 0.24 ± 0.03 | 2.0±0.×10^7 M^−1 | 51 ± 3 |  | 11 ± 1 | 100 | 10 | 5 |  |  |  |  |  |  |  |  |
| COc1cc2cc(c1Cl)N(C)C(=O)CC(O)C1(C)OC1C(C)C1C=C(C(OC)C=CC=C(C)C2)N(C(=O)c2ccccc2)C(=O)O1 (centres unmarked) [6 a] | 2090 ± 99 | > 1030 | 6±2×10^5 M^−1 |  | strong inhibitors that completely abolished microtubule assembly | 13500 ± 623 |  |  |  |  |  |  |  |  |  |  |  |
| C#CCCCCC(=O)OC1CC(=O)N(C)c2cc(cc(OC)c2Cl)CC(C)=CC=CC(OC)C2(O)CC(OC(=O)N2)C(C)C2OC12C (centres unmarked) [4 c] | 0.033 ± 0.003 | 0.07 ± 0.008 | 5.4±0.5×10^7 M^−1 | 20 ± 2 |  | 4.7 ± 0.6 | 142 |  |  |  |  |  |  |  |  |  |  |
| COc1cc2cc(c1Cl)N(C)C(=O)CC(OC(=O)c1ccccc1)C1(C)OC1C(C)C1C=C(NC(=O)O1)C(OC)C=CC=C(C)C2 (centres unmarked) [5 a] | 338 ± 4.65 | > 570 | 9.2±0.3×10^5 M^−1 | 1090 ± 40 | strong inhibitors that completely abolished microtubule assembly | 2630 ± 187 |  |  |  |  |  |  |  |  |  |  |  |
